# Experimental data reported in PMC8761492 (Life Science Alliance, 2022).
# Where “and” joins values, the source holds several entries; their conditions need not be identical. Equal values may be shown once. Starred links: 1 amine or outer side, 2 acyl side, 3 side chain; linkers in the order of their positions; H or OH if unused. Positions of bridges follow the written chain, without caps; N, C: chain ends. Non-standard residues stand in square brackets, D forms with d. Residues, ends and D or L forms follow the SMILES beside them. *: point of attachment. X1 = CC[C@H](C)[C@@H](N[*:1])[C@@H](O)CC(=O)O[C@H](C(=O)[C@H](C)C(=O)[*:2])C(C)C; NMeY = CN[C@@H](Cc1ccc(O)cc1)C(=O)O; dNMeL = CN[C@H](CC(C)C)C(=O)O; Pyruvoyl = CC(=O)C(=O)*
# Key:
# plasma proteins = test: Plasma protein binding by equilibrium dialysis, human plasma; format: in vitro ADME; conditions: for % Bound / % Recovery / % Unbound: single replicates
# Experimental: The binding of plitidepsin to plasma proteins was determined in vitro at three concentrations (100, 250 and 500 ng/ml) in male rat, dog and human plasma ([53]).
# Rat (CD), beagle dog, and human blood was collected at Aptuit Srl from at least three male donors, and plasma prepared by centrifuging blood at 2,000g, 4°C for 10 min. Human plasma was obtained from healthy and fasted male volunteers. Na-heparin was used as the anti-coagulant for all species. All plasma was stored at approximately −20°C and thawed only once, on the day of the experiment.
# Plasma protein binding was assessed using Rapid Equilibrium Dialysis plates pre-loaded with equilibrium dialysis membrane inserts (MWCO ∼8 kD).
# Separation of free compound from protein-bound material was achieved by dialysis of the sample through the membrane under appropriate shaking at 37°C. The suitability of equilibrium dialysis as a method for protein binding determination of plitidepsin was assessed.
# Before experimentation, the time required to reach equilibrium was determined in male rat and human plasma at one concentration (250 ng/ml) and six selected time points (2, 3, 4, 5, 6, and 7 h) at 37°C.
# Plitidepsin stability was assessed in plasma (all species) and PBS at two concentrations (100 and 500 ng/ml for plasma; 0.5 and 50 ng/ml for PBS) by comparing plitidepsin concentration in spiked and preincubated plasma before and after incubation at 37°C for 5 h as determined previously.
# [1] = APLICOV-PC: safety, adverse events and laboratory abnormalities; format: in vivo, human
# Experimental: The plitidepsin clinical proof-of-concept study (APLICOV-PC, APL-D-002-20; EudraCT #2020-001993-31; NCT04382066) was a multicenter, randomized, parallel, open-label, proof-of-concept clinical trial, exploring three dose levels of plitidepsin (1.5, 2.0, and 2.5 mg/day, flat doses) for 3 consecutive days, as a 90-min i.v. infusion, in adult patients with COVID-19 who required hospitalization. The study was conducted in 10 hospital centers in Spain between 12 May 2020 and 26 November 2020. Presented data reflect all analyses completed by the cut-off date of 10 December 2020. The research was performed in accordance with good clinical practice guidelines and adhered to the tenets of the Declaration of Helsinki. The study protocol is available in Supplemental Data 1. Supplemental Data 2 summarizes the protocol amendments as well as post hoc analyses that were performed.
# Adult (aged ≥18 yr) hospitalized patients with a positive SARS-CoV-2 infection confirmed by real-time RT-PCR testing of a nasopharyngeal exudate or the lower respiratory tract were eligible for inclusion in this study. Despite the eligibility of patients with samples from the lower respiratory tract, all patients reported here had only nasopharyngeal swab samples. Included patients must have had the onset of SARS-CoV-2 infection symptoms no more than 10 d before initiating the study. […] Women and men with partners of childbearing potential agreed to take effective contraception while on study and for 6 mo after the last dose of plitidepsin. All included patients provided written informed consent before the initiation of the study.
# Key exclusion criteria included participation in another COVID-19–related clinical trial; receiving antivirals, chloroquine or derivatives, IL-6 receptor inhibitors, or immunomodulatory drugs for treatment of COVID-19; or requiring mechanical ventilation support at enrollment. Patients were also excluded for evidence of multi-organ failure, clinically relevant heart disease, clinically relevant arrhythmia or history of QTc interval prolongation, or neuropathy ≥ grade 2. Full exclusion criteria can be found in Supplemental Data 1.
# Randomization was done through registration in the study’s electronic case report form. The system assigned a unique randomization number for each patient. Patients were enrolled sequentially and allocated by block randomization into the three dose groups (1.5, 2.0, and 2.5 mg plitidepsin) up to an initial sample size of nine patients per group. To ensure safety, the first three patients in the 2.0 mg group could not be enrolled until the first three patients in the 1.5 mg cohort had successfully completed Day 15 assessments (12 d after completing plitidepsin dosing); similarly, the first three patients in the 2.5 mg cohort could be not enrolled until the first three patients in the 2.0 mg cohort had successfully completed Day 15 assessments (12 d after completing plitidepsin dosing). Finally, three patients had to be treated in the 2.5 mg cohort to complete the accrual of nine patients per cohort. When multiple dose levels were open for enrollment, patients were randomized 1:1 or 1:1:1 as appropriate (Fig 4). After an interim safety analysis, a protocol amendment was approved to subsequently expand the accrual up to 45 patients (six additional patients per dose group).
# Enrolled patients received plitidepsin administered as an i.v. infusion over 90 min on days 1, 2, and 3 at dose levels of 1.5, 2.0, and 2.5 mg. A single batch (Lot 16D19) was administered to all patients. All patients also received, 20–30 min before the infusion of plitidepsin (i.e., on days 1–3), a premedication regimen consisting in: diphenhydramine 25 mg i.v., ranitidine 50 mg i.v., and dexamethasone 8 mg orally. […]
# [2] = Post-amendment (n = 36), Grade 1
# [3] = Post-amendment (n = 36), Grade 2
# [4] = after the premedication amendment
# [5] = before the premedication amendment
smiles,measurement,setting,value
CC[C@H](C)[C@H]1NC(=O)[C@@H](NC(=O)[C@@H](CC(C)C)N(C)C(=O)[C@@H]2CCCN2C(=O)C(C)=O)[C@@H](C)OC(=O)[C@H](Cc2ccc(OC)cc2)N(C)C(=O)[C@@H]2CCCN2C(=O)[C@H](CC(C)C)NC(=O)[C@@H](C)C(=O)[C@H](C(C)C)OC(=O)C[C@@H]1O [Plitidepsin] (Pyruvoyl-P[dNMeL]T[X1]LP[NMeY](Me); ester 3-C),fraction unbound at 100 ng/mL,"plasma proteins; male, human, plasma, nominal 100 ng/mL, Mean ± SD, read-out: % Bound (converted)",0.017
same,% Bound,plasma proteins; nominal 100 ng/mL,98.3% and 98.2%
same,% Recovery,plasma proteins; nominal 100 ng/mL,84.7% and 77.7%
same,% Unbound,plasma proteins; nominal 100 ng/mL,1.7% and 1.8%
same,% Bound,plasma proteins; nominal 250 ng/mL,98.5% and 98%
same,% Recovery,plasma proteins; nominal 250 ng/mL,56.7% and 87.3% and 87%
same,% Unbound,plasma proteins; nominal 250 ng/mL,1.5% and 2%
same,% Bound,plasma proteins; nominal 500 ng/mL,98%
same,% Recovery,plasma proteins; nominal 500 ng/mL,78.8%
same,% Unbound,plasma proteins; nominal 500 ng/mL,2%
same,prevalence of grade 3–4 AEs,[1]; 1.5 mg cohort,33.3%
same,prevalence of grade 3–4 AEs,[1]; 2.0 mg cohort,20.0%
same,prevalence of grade 3–4 AEs,[1]; 2.5 mg cohort,40.0%
same,patients with Grade 1 increase in CPK,[1]; 3 of 37 with normal baseline values,8.1%
same,patients whose platelet counts normalized,[1]; 5 of 12 with Grade 1 thrombocytopenia at entry,41.7%
same,patients with hyperglycemia,"[1]; 8 of 45, none considered related to plitidepsin",18%
same,patients with elevation of AST,"[1]; 13 of 44, regardless of causality",30%
same,patients with elevation of ALT,"[1]; 29 of 44, regardless of causality",66%
same,hypersensitivity reactions after changes to premedication,"[1]; 36 patients, 108 infusions",No new hypersensitivity reactions
same,serious adverse event considered related to the study drug,"[1]; Grade 3 hypersensitivity reaction, one event",2.2 % subjects
same,Abdominal pain,[1]; [2],2 (5.6%) N (%)
same,Anorexia,[1]; [2],1 (2.8%) N (%)
same,Asthenia,[1]; [2],1 (2.8%) N (%)
same,Chest discomfort,[1]; [2],1 (2.8%) N (%)
same,Diarrhea,[1]; [2],1 (2.8%) N (%)
same,Dizziness,[1]; [2],2 (5.6%) N (%)
same,Dysgeusia,[1]; [2],2 (5.6%) N (%)
same,Dyspepsia,[1]; [2],2 (5.6%) N (%)
same,Dysthermia,[1]; [2],1 (2.8%) N (%)
same,Nausea,[1]; [2],11 (30.6%) N (%)
same,Temperature regulation disorder,[1]; [2],1 (2.8%) N (%)
same,Vomiting,[1]; [2],3 (8.3%) N (%)
same,Amylase increased,[1]; [3],1 (2.8%) N (%)
same,Asthenia,[1]; [3],1 (2.8%) N (%)
same,Decreased appetite,[1]; [3],1 (2.8%) N (%)
same,Diarrhea,[1]; [3],1 (2.8%) N (%)
same,Lipase increased,[1]; [3],1 (2.8%) N (%)
same,Nausea,[1]; [3],3 (8.3%) N (%)
same,Vomiting,[1]; [3],2 (5.6%) N (%)
same,Diarrhea,"[1]; Post-amendment (n = 36), Grade 3",1 (2.8%) N (%)
same,Nausea,"[1]; Pre-amendment (n = 9), Grade 1",3 (33.3%) N (%)
same,Vomiting,"[1]; Pre-amendment (n = 9), Grade 1",2 (22.2%) N (%)
same,Nausea,"[1]; Pre-amendment (n = 9), Grade 2",2 (22.2%) N (%)
same,Anaphylactic reaction,"[1]; Pre-amendment (n = 9), Grade 3",1 (11.1%) N (%)
same,proportion of patients with nausea,[1]; [4],38.9%
same,proportion of patients with vomiting,[1]; [4],13.9%
same,Grade 4 AEs,[1]; all doses,No Grade 4 AEs were reported
same,hemotoxicity,[1]; all doses,did not show signs of clinically relevant hemotoxicity
same,patients with treatment related adverse events,"[1]; all doses, 25 patients",55.5%
same,patients with one or more adverse events,"[1]; all doses, 44 of 45",97.8%
same,treatment-related abdominal pain,"[1]; all doses, 45 treated patients",4.4%
same,treatment-related diarrhea,"[1]; all doses, 45 treated patients",6.7%
same,treatment-related dizziness,"[1]; all doses, 45 treated patients",4.4%
same,treatment-related dysgeusia,"[1]; all doses, 45 treated patients",4.4%
same,treatment-related nausea,"[1]; all doses, 45 treated patients",42.2%
same,treatment-related vomiting,"[1]; all doses, 45 treated patients",15.6%
same,patients with at least one Grade ≥ 3 AE regardless of causality,"[1]; all doses, NCI-CTCAE v5",31%
same,number of Grade 3 AEs attributed to plitidepsin,[1]; anaphylactic reaction at 1.5 mg/day and diarrhea at 2.5 mg/day,Two
same,proportion of patients with nausea,[1]; [5],55.6%
same,proportion of patients with vomiting,[1]; [5],22.2%
same,patients whose CPK values decreased on study,[1]; four of five with Grade 1–2 elevation at entry,80%
same,patients who died (COVID-19-related),"[1]; three of 45 treated patients, days 22, 30 and 57",6.7%
